{"source": "patent US8324427B2", "about": "“Substances analogous to MK8383 and agricultural and horticultural disease control agents” (Meiji Seika Kaisha, Ltd., priority 2008, dated 2012)", "key": {"Botrytis cinerea [1]": {"system": "Botrytis cinerea", "experiment": "Evaluation of control effect (preventive value) on cabbage leaf discs", "format": "in vivo", "conditions": "100 ppm test solution sprayed on cabbage leaf discs; Botrytis cinerea spore inoculation; three days after the infection", "experimental": "The compounds obtained in Examples 1 to 3 were dissolved in acetone to bring the concentration of the compounds to 1 mg/mL. Ten-fold diluted Neoesterin (manufactured by KUMIAI CHEMICAL INDUSTRY CO., LTD.) (1 μL) was added to 20 μL of the solutions. Further, 180 μL of deionized water was added thereto to regulate the concentration to 100 ppm to prepare test solutions. The control effect was measured by measuring the preventive value of each of the test solutions. The preventive value was calculated by the following method. At the outset, leaves cut by a leaf punch off from the leaves at the third and fourth stages of cabbage were allowed to stand still on a multi-well plate. An appropriate amount of the test solution was sprayed followed by air drying. Next, a spore suspension (2.0×10^5 cells/mL) of Botrytis cinerea was prepared as an inoculating microorganism liquor and was inoculated by spraying in an amount of 20 mL per 7 to 10 multi-well plate. Infection with Botrytis cinerea was carried out in a light shielding chamber (temperature 21° C., humidity about 100%), and the preventive value was calculated three days after the infection. […] 0; No pathogenesis was found. 1; Slight pathogenesis was found. 2; Control effect was found as compared with untreated plot, although diseases were developed. 3; Phathogenesis equivalent to that in untreated plot was found. [formula]"}, "Botrytis cinerea [2]": {"system": "Botrytis cinerea", "experiment": "Antimicrobial activity test (extension of hypha)", "format": "cell-based", "parameters": "key to the marks not given beside the values", "conditions": "final concentration 12.5 ppm, 3 days"}, "Alternaria kikutiana": {"system": "Alternaria kikutiana", "experiment": "Antimicrobial activity test (extension of hypha)", "format": "cell-based", "parameters": "key to the marks not given beside the values", "conditions": "final concentration 12.5 ppm, 3 days"}, "[3]": {"experiment": "Evaluation of photostability (residual ratio after exposure to light)", "format": "physicochemical", "conditions": "dry film exposed to sunlight lamp 24 hr, 25° C., humidity 60%, 30,000 lux, UV 300 to 400 μW/cm^2; HPLC; 0 hr = 100%", "experimental": "The compounds obtained in Examples 1 to 3 were dissolved in acetone, and the concentration of the compounds was adjusted to 200 μg/mL (100 μg/mL for the compound of Example 3) to give test solutions. The photostability was determined by measuring the residual ratio of compound after exposure to light. The residual ratio was calculated by the following method. The test solution (500 μL) was dispensed in a glass Petri dish having a diameter of 5 cm, and the solvent was removed by evaporation under light shielding conditions to form a dry film. The dry film was exposed to a sunlight lamp within a chamber (temperature 25° C., humidity 60%) and was recovered 24 hr after the start of the exposure. The exposed film was washed with 500 μL of methanol and was analyzed by HPLC (manufactured by Nihon Waters K.K.). The residual ratio (concentration ratio after the elapse of each hour when the residual ratio at 0 hr was presumed to be 100%) was calculated by regarding the peak area as the concentration of the compound."}, "[4]": {"system": "Colletotrichum lagenarium", "experiment": "Antimicrobial activity test (extension of hypha)", "format": "cell-based", "parameters": "key to the marks not given beside the values", "conditions": "final concentration 12.5 ppm, 3 days"}, "Cercospora beticola": {"system": "Cercospora beticola", "experiment": "Antimicrobial activity test (extension of hypha)", "format": "cell-based", "parameters": "key to the marks not given beside the values", "conditions": "final concentration 12.5 ppm, 3 days"}, "Rhizoctonia solani": {"system": "Rhizoctonia solani", "experiment": "Antimicrobial activity test (extension of hypha)", "format": "cell-based", "parameters": "key to the marks not given beside the values", "conditions": "final concentration 12.5 ppm, 3 days"}, "Pyricularia oryzae": {"system": "Pyricularia oryzae", "format": "cell-based", "parameters": "key to the marks not given beside the values", "conditions": "final concentration 12.5 ppm, 3 days"}, "Leptosphaeria nodorum": {"system": "Leptosphaeria nodorum", "experiment": "Antimicrobial activity test (extension of hypha)", "format": "cell-based", "parameters": "key to the marks not given beside the values", "conditions": "final concentration 12.5 ppm, 3 days"}}, "data": [{"smiles": "C/C=C(/C)[C@H]1[C@@H](/C=C/C=C/C(=O)O)[C@H]2[C@@H](C[C@@H]1C)[C@@H](O)CC[C@@H]2C", "note": "[Compound of Example 3, (2E,4E)-5-{(1S,4S,4aS,5S,6R,7S,8aR)-6-[(Z)-but-2-en-2-yl]-decahydro-1-hydroxy-4,7-dimethylnaphthalen-5-yl}penta-2,4-dienoic acid]", "values": [{"measurement": "Preventive value", "setting": "Botrytis cinerea [1]", "result": 100}, {"measurement": "Inhibition of extension", "setting": "Botrytis cinerea [2]", "result": "+++"}, {"measurement": "Inhibition of extension", "setting": "Alternaria kikutiana", "result": "++"}, {"measurement": "Residual ratio after 24 hr", "setting": "[3]", "result": 95, "unit": "%"}, {"measurement": "Inhibition of extension", "setting": "[4]", "result": "++"}, {"measurement": "Inhibition of extension", "setting": "Cercospora beticola", "result": "+++"}, {"measurement": "Inhibition of extension", "setting": "Rhizoctonia solani", "result": "+++"}, {"measurement": "Inhibition of extension", "setting": "Pyricularia oryzae", "result": "++"}, {"measurement": "Inhibition of extension", "setting": "Leptosphaeria nodorum", "result": "++"}]}, {"smiles": "C/C=C(\\C)[C@H]1[C@@H](/C=C/C=C/C(=O)O)[C@H]2[C@@H]([C@H]3C[C@]31C)[C@@H](O)CC[C@@H]2C", "note": "[Compound of Example 1, (2E,4E)-5-{(1aR,2R,3S,3aS,4S,7S,7aS,7bR)-2-[(E)-but-2-en-2-yl]-decahydro-7-hydroxy-1a,4-dimethyl-1H-cyclopropa[a]naphthalen-3-yl}penta-2,4-dienoic acid]", "values": [{"measurement": "Preventive value", "setting": "Botrytis cinerea [1]", "result": 92}, {"measurement": "Residual ratio after 24 hr", "setting": "[3]", "result": 100, "unit": "%"}]}, {"smiles": "C/C=C(\\C)[C@H]1[C@@H](/C=C/C=C/C(=O)O)[C@H]2[C@@H](C[C@@H]1C)[C@@H](O)CC[C@@H]2C", "note": "[Compound of Example 2, (2E,4E)-5-{(1S,4S,4aS,5S,6R,7S,8aR)-6-[(E)-but-2-en-2-yl]-decahydro-1-hydroxy-4,7-dimethylnaphthalen-5-yl}penta-2,4-dienoic acid]", "values": [{"measurement": "Preventive value", "setting": "Botrytis cinerea [1]", "result": 100}, {"measurement": "Residual ratio after 24 hr", "setting": "[3]", "result": 108, "unit": "%"}]}]}
